This is an account of results in US9226950B2, “Method and composition for treating diabetes mellitus” (National Dong Hwa University, priority 2013, dated 2016).

One assay addresses T1, Insr (Rattus norvegicus, UniProt P15127).
T1 construct: L6 cells were fully differentiated with α-MEM supplemented with 2% FBS for 5 days to myotubes; endogenous in cells; host or cells: L6 myoblasts differentiated to myotubes
Kind of assay: Phosphorylation of insulin receptors (Tyr1158/Tyr1162/Tyr1163) in L6 cells, Western blot. The class given is cell-based. The following applies: FIG. 1(a). The protocol: (§1) […] muscle myoblast cells (L6) was a generous gift from Professor Hitoshi Ashida's Lab. (Kobe University, Kobe, Japan). The cells were grown and maintained in α-minimal essential medium (α-MEM, 12000022, GIBCO, CA, USA) containing 10% fetal bovine serum (FBS, GIBCO) and 1% penicillin streptomycin (GIBCO) in a cell culture incubator with 5% CO2 at 37° C. Prior to the following experiments, the cells were seeded and cultured at a density of 8×10^3 cells per well in 96-well plates or 2.5×10^5 cells per well in 6-well plates. After the myoblasts achieved 80% confluence, the cells were incubated for 5 days in the α-MEM supplemented with 2% FBS to induce differentiation to myotubes.
L6 cells were fully differentiated with α-MEM supplemented with 2% FBS for 5 days to myotubes. The cells were washed twice with Phosphate Buffered Saline (PBS) containing 0.1% BSA and subsequently incubated α-MEM containing 0.25% BSA with or without 100 nM of S961, and treated with or without 100 μM of Tetracosanol for 90 min. Then, the cells were treated with or without 10 μM of insulin for 5 min. […] The levels of the proteins including phospho-Insulin receptors (Tyr1158/Tyr1162/Tyr1163) and Insulin receptor (Cell Signaling, Boston, Mass., USA) were detected and evaluated by Western blot with primary antibody.
The cells after treatments were collected and washed twice in cold KRH buffer, and then lysed in ice-cold RIPA buffer incubation at 4° C. for 60 min. After centrifugation at 12,000×g for 30 min at 4° C., the supernatant was kept and quantified by Bradford protein assay (Bio-Rad, Hercules, Calif., USA). […] The signals were monitored using Western Lightning™ Plus-ECL (Perkin Elmer Life Sciences) and the PVDF membrane was exposed to Luminescent image analyzer (LAS)-3000 (Fujifilm, Minato, Tokyo, Japan). Acquired data were analyzed and compared the difference among treatments. […]
Background: In western blotting, separated proteins are transferred to a membrane and probed.

The subject of another assay is AMPK. In words: Phosphorylation of AMPK on Thr172 in L6 cells, Western blot. The format is cell-based, mouse. The note with it: 100 μM tetracosanol 90 min, then 10 μM insulin 30 min, FIG. 2. How it is done: as §1
The L6 cells were fully differentiated with α-MEM supplemented with 2% FBS for 5 days to myotubes. […] The levels of the proteins including phospho-AKT (Thr308), AKT, phospho-AMPK (Thr172), and AMPK (Cell Signaling) were detected and evaluated by Western blot with primary antibody.
The cells after treatments were collected and washed twice in cold KRH buffer, and then lysed in ice-cold RIPA buffer incubation at 4° C. for 60 min. After centrifugation at 12,000×g for 30 min at 4° C., the supernatant was kept and quantified by Bradford protein assay (Bio-Rad, Hercules, Calif., USA). […] Acquired data were analyzed and compared the difference among treatments. […]

T1 sequence (P15127 27-759 limits assumed): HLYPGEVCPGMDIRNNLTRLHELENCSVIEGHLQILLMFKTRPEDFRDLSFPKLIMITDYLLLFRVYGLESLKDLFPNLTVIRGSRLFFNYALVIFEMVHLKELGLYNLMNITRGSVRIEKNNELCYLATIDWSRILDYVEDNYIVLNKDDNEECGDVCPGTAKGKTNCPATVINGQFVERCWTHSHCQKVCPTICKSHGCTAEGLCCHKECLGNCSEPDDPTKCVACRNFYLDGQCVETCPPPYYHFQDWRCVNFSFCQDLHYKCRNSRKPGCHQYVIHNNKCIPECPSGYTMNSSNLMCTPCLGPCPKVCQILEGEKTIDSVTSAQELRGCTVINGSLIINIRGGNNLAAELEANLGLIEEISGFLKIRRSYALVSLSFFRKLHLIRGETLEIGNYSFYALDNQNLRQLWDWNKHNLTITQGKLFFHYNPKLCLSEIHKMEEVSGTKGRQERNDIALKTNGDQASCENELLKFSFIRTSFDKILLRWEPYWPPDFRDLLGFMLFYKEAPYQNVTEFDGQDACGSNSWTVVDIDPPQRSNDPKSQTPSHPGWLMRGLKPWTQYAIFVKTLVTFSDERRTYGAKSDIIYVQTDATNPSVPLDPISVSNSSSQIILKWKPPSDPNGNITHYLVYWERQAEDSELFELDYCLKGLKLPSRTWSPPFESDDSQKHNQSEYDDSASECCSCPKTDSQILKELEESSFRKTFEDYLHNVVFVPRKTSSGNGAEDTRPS
T1 sequence (P15127 764-1383 limits assumed): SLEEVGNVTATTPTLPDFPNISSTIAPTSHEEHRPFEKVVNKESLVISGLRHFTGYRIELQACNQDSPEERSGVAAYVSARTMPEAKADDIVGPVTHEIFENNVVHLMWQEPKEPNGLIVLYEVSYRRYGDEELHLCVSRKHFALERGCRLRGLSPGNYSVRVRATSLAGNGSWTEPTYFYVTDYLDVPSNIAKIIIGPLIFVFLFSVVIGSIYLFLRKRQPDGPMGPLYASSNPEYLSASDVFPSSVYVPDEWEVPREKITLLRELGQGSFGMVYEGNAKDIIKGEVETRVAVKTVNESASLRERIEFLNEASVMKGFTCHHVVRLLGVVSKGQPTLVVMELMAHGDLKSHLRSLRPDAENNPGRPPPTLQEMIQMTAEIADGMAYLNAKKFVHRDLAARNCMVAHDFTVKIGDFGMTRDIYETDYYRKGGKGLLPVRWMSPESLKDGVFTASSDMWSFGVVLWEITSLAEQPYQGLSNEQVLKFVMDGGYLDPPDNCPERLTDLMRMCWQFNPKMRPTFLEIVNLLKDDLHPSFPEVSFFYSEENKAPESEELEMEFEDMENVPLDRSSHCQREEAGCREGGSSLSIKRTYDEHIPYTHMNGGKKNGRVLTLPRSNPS

With `CCCCCCCCCCCCCCCCCCCCCCCCO` [tetracosanol], the “phosphorylation of phospho-Insr on Tyr1158, 1162, and 1163” value is on record as “tended to be enhanced” on Insr (insulin plus tetracosanol (Ins+Tet): 100 μM tetracosanol 90 min, then 10 μM insulin 5 min) and “tended to be enhanced” on Insr (insulin with S961 plus tetracosanol (Ins+S961+Tet): 100 nM S961, 100 μM tetracosanol, 10 μM insulin). Moreover, the “insulin-independent GLUT4 translocation response (phospho-AMPK on Thr172)” value in the assay on AMPK is given as “no insulin-independent GLUT4 translocation response”.
